Data as given in US11130769B2 (Prelude Therapeutics Incorporated, priority 2018, dated 2021).
Read-outs that look alike come from different tables or passages of the source.

What was measured:
[1] = system: H929 cells; assay: Cell viability assay (H929 10 FBS); type: cell-based; conditions: Homo sapiens, NCI-H929, 24 hours, read-out: H929_10FBS IC50
Summary of the method: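 H929 cells, 4000/well, in RPMI 1640 with 10% FBS, sodium pyruvate, HEPES and glucose were exposed to compound 24 h at 37 °C. Viability read as luminescence after 30-60 min at RT with CellTiter-Glo or ATPlite 1 Step.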

[2] = molecular target: MCL-1 (Homo sapiens (Human), UniProt Q07820); assay: Cell free Mcl-1:Bim affinity assay (fluorescence polarization competition); type: binding; conditions: 15 nM MCL-1, 5 nM FITC-Bim, 1 hour at room temperature, read-out: BIM_Ki
Summary of the method: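 Compounds competed with FITC-labelled Bim peptide (5 nM) for MCL-1 (15 nM) in HEPES/NaCl buffer with 1% DMSO, 1 h at room temperature. Fluorescence polarization (535 nm emission) gave % inhibition versus DMSO and positive controls; IC50 from 10-point curves, converted to Ki by the Nikolovska-Coleska equation.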

Chain of MCL-1 (Q07820 whole entry): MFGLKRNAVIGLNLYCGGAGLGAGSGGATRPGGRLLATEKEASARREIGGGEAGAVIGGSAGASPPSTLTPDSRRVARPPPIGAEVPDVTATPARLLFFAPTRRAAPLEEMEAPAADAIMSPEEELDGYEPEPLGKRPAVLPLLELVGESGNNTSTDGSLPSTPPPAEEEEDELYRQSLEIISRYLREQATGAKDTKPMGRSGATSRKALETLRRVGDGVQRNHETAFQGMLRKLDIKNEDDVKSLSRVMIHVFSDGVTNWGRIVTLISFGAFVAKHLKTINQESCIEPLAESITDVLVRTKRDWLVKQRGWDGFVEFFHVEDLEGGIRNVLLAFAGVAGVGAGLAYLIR

| SMILES | IC50 [1] | Ki ([2]; class symbols) | Ki ([2]; numeric values) |
| --- | --- | --- | --- |
| CN1C/C=C/[C@H](OC(=O)NC2CCC2)[C@@H]2CC[C@H]2CN2C[C@@]3(CCCc4cc(Cl)ccc43)COc3ccc(cc32)S(=O)(=O)NC(=O)C1(C)C [Example 201, [(3R,6R,7S,8E,22S)-6′-Chloro-11,12,12-trimethyl-13,15,15-trioxo-spiro[20-oxa-15-thia-1,11,14-triazatetracyclo[14.7.2.03,6.019,24]pentacosa-8,16,18,24-tetraene-22,1′-tetralin]-7-yl] N-cyclobutylcarbamate] | < 0.5 µM | < 0.001 µM | – |
| CC1(C)OC/C=C/[C@H](OC(=O)N2CCOCC2)[C@@H]2CC[C@H]2CN2C[C@@]3(CCOc4cc(Cl)ccc43)COc3ccc(cc32)S(=O)(=O)NC1=O [Example 248, [(3R,6R,7S,8E,22S)-7′-Chloro-12,12-dimethyl-13,15,15-trioxo-spiro[11,20-dioxa-15-thia-1,14-diazatetracyclo[14.7.2.03,6.019,24]pentacosa-8,16,18,24-tetraene-22,4′-chromane]-7-yl]morpholine-4-carboxylate] | > 1 µM | < 0.001 µM | – |
| C[C@@H]1NC(=O)COC[C@@H]2CC[C@H]2CN2C[C@@]3(CCCc4cc(Cl)ccc43)COc3ccc(cc32)S(=O)(=O)NC1=O [Example 197, (3R,6R,12S,22S)-6′-Chloro-12-methyl-15,15-dioxo-spiro[8,20-dioxa-15-thia-1,11,14-triazatetracyclo[14.7.2.0˜3,6.0˜19,24]pentacosa-16,18,24-triene-22,1′-tetralin]-10,13-dione] | > 1 µM | 0.001 to 0.1 µM | – |
| CN(C)C(=O)O[C@H]1/C=C/COC(C)(C)C(=O)NS(=O)(=O)c2ccc3c(c2)N(C[C@@H]2CC[C@H]21)C[C@@]1(CCCc2cc(Cl)ccc21)CO3 [Example 34, [(3R,6R,7S,8E,22S)-6′-Chloro-12,12-dimethyl-3,5,5-trioxo-spiro[11,20-dioxa-15-thia-1,14-diazatetracyclo[14.7.2.03,6.019,24]pentacosa-8,16,18,24-tetraene-22,1′-tetralin]-7-yl] N,N-dimethylcarbamate] | < 0.5 µM | < 0.001 µM | – |
| CC1(C)OC/C=C/[C@@H](OCCN2CCCC2)[C@@H]2CC[C@H]2CN2C[C@@]3(CCCc4cc(Cl)ccc43)COc3ccc(cc32)S(=O)(=O)NC1=O [Example 274, (3R,6R,7R,8E,22S)-6′-Chloro-12,12-dimethyl-15,15-dioxo-7-(2-pyrrolidin-1-ylethoxy)spiro[11,20-dioxa-15-thia-1,14-diazatetracyclo[14.7.2.03,6.019,24]pentacosa-8,16,18,24-tetraene-22,1′-tetralin]-13-one] | < 1 µM | < 0.001 µM | – |
| CO[C@H]1/C=C/CCCC(=O)NS(=O)(=O)c2ccc3c(c2)N(C[C@@H]2CC[C@H]21)C[C@@]1(CCCc2cc(Cl)ccc21)CO3 [Example 80, (3R,6R,7S,8E,22S)-6′-Chloro-7-methoxy-15,15-dioxo-spiro[20-oxa-15-thia-1,14-diazatetracyclo[14.7.2.03,6.019,24]pentacosa-8,16(25),17,19(24)-tetraene-22,1′-tetralin]-13-one] | > 1 µM | 0.001 to 0.1 µM | – |
| CC(C)C(=O)NS(=O)(=O)c1ccc2c(c1)N(CC1CCC1)CC1(CCCc3cc(Cl)ccc31)CO2 (centres unmarked) [Example 6, N-[6′-Chloro-5-(cyclobutylmethyl)spiro[2,4-dihydro-1,5-benzoxazepine-3,1′-tetralin]-7-yl]sulfonyl-2-methyl-propanamide] | > 1 µM | – | 0.0357 µM |
| CN(C)C(=O)O[C@H]1/C=C/CN2CCC[C@H]2C(=O)NS(=O)(=O)c2ccc3c(c2)N(C[C@@H]2CC[C@H]21)C[C@@]1(CCCc2cc(Cl)ccc21)CO3 [Example 294, [(3R,6R,7S,8E,15S,25S)-6′-Chloro-16,18,18-trioxo-spiro[23-oxa-18-thia-1,11,17-triazapentacyclo[17.7.2.03,6.011,15.022,27]octacosa-8,19,21,27-tetraene-25,1′-tetralin]-7-yl] N,N-dimethylcarbamate] | < 0.5 µM | 0.001 to 0.1 µM | – |
| O=C(CCc1ccncc1)NS(=O)(=O)c1ccc2c(c1)N(CC1CCC1)C[C@@]1(CCCc3cc(Cl)ccc31)CO2 (racemic) [Example 20, 3-Pyridin-4-yl-N-[rac-(3S)-6′-chloro-5-(cyclobutylmethyl)spiro[2,4-dihydro-1,5-benzoxazepine-3,1′-tetralin]-7-yl]sulfonyl-propanamide] | > 1 µM | – | 0.0218 µM |
| CO[C@@H]1/C=C/C[C@H](C)[C@@H](C)C(=O)NS(=O)(=O)c2ccc3c(c2)N(C[C@@H]2CC[C@H]21)C[C@@]1(CCCc2cc(Cl)ccc21)CO3 [Example 78, (3R,6R,7R,8E,1S,12R,22S)-6′-Chloro-7-methoxy-11,12-dimethyl-15,15-dioxo-spiro[20-oxa-15-thia-1,14-diazatetracyclo[14.7.2.03,6.019,24]pentacosa-8,16,18,24-tetraene-22,1′-tetralin]-13-one] | > 1 µM | 0.001 to 0.1 µM | – |
| CC1(C)OC/C=C/[C@H](OC(=O)N2CCCC2)[C@@H]2CC[C@H]2CN2C[C@@]3(CCCc4cc(Cl)ccc43)COc3ccc(cc32)S(=O)(=O)NC1=O [Example 173, [(3R,6R,7S,8E,22S)-6′-Chloro-12,12-dimethyl-13,15,15-trioxo-spiro[11,20-dioxa-15-thia-1,14-diazatetracyclo[14.7.2.03,6.019,24]pentacosa-8,16,18,24-tetraene-22,1′-tetralin]-7-yl]pyrrolidine-1-carboxylate] | < 0.5 µM | < 0.001 µM | – |
| CC(C)N1CCN(CC2(O)/C=C/COC(C)(C)C(=O)NS(=O)(=O)c3ccc4c(c3)N(C[C@@H]3CC[C@H]32)C[C@@]2(CCCc3cc(Cl)ccc32)CO4)CC1 (stereo partly drawn) [Example 109, (3R,6R,8E,22S)-6′-Chloro-7-hydroxy-7-[(4-isopropylpiperazin-1-yl)methyl]-12,12-dimethyl-15,15-dioxo-spiro[11,20-dioxa-15-thia-1,14-diazatetracyclo[14.7.2.03,6.019,24]pentacosa-8,16,18,24-tetraene-22,1′-tetralin]-13-one] | > 1 µM | 0.001 to 0.1 µM | – |
| CC1(C)OC/C=C/[C@H](OC(=O)NC2CCOCC2)[C@@H]2CC[C@H]2CN2C[C@@]3(CCCc4cc(Cl)ccc43)COc3ccc(cc32)S(=O)(=O)NC1=O [Example 185, [(3R,6R,7S,8E,22S)-6′-Chloro-12,12-dimethyl-13,15,15-trioxo-spiro[11,20-dioxa-15-thia-1,14-diazatetracyclo[14.7.2.03,6.019,24]pentacosa-8,16,18,24-tetraene-22,1′-tetralin]-7-yl] N-tetrahydropyran-4-ylcarbamate] | < 0.5 µM | < 0.001 µM | – |
| CC1(C)OC/C=C/[C@H](O)[C@@H]2CC[C@H]2CN2C[C@@]3(CCCc4cc(Cl)ccc43)COc3ccc(cc32)S(=O)(=O)NC1=O [Example 32, (3R,6R,7S,8E,22S)-6′-Chloro-7-hydroxy-12,12-dimethyl-15,15-dioxo-spiro[11,20-dioxa-15-thia-1,14-diazatetracyclo[14.7.2.03,6.019,24]pentacosa-8,16,18,24-tetraene-22,1′-tetralin]-13-one] | < 0.5 µM | < 0.001 µM | – |
| CN(C)C(=O)CO[C@@H]1/C=C/COC2(CC2)C(=O)NS(=O)(=O)c2ccc3c(c2)N(C[C@@H]2CC[C@H]21)C[C@@]1(CCCc2cc(Cl)ccc21)CO3 [Example 143, 2-[(3R,6R,7R,8E,22S)-6′-Chloro-12,12-ethylene-13,15,15-trioxo-spiro[11,20-dioxa-15-thia-1,14-diazatetracyclo[14.7.2.03,6.019,24]pentacosa-8,16,18,24-tetraene-22,1′-tetralin]-7-yl]oxy-N,N-dimethyl-acetamide] | < 0.5 µM | < 0.001 µM | – |
| C=CCCCC(=O)NS(=O)(=O)c1ccc2c(c1)N(Cc1cnn(CC=C)c1)CC1(CCCc3cc(Cl)ccc31)CO2 (centres unmarked) [Example 10, N-[5-[(1-Allylpyrazol-4-yl)methyl]-6′-chloro-spiro[2,4-dihydro-1,5-benzoxazepine-3,1′-tetralin]-7-yl]sulfonylhex-5-enamide] | > 1 µM | – | 1.43 µM |
| C[C@@H]1C(=O)NS(=O)(=O)c2ccc3c(c2)N(C[C@@H]2CC[C@H]2[C@@H](OC(=O)N(C)C)/C=C/CN1C)C[C@@]1(CCCc2cc(Cl)ccc21)CO3 [Example 145, [(3R,6R,7S,8E,12R,22S)-6′-Chloro-11,12-dimethyl-13,15,15-trioxo-spiro[20-oxa-15-thia-1,11,14-triazatetracyclo[14.7.2.03,6.019,24]pentacosa-8,16,18,24-tetraene-22,1′-tetralin]-7-yl] N,N-dimethylcarbamate] | < 0.5 µM | < 0.001 µM | – |
| CO[C@@H]1/C=C/CNC2(CC2)C(=O)NS(=O)(=O)c2ccc3c(c2)N(C[C@@H]2CC[C@H]21)C[C@@]1(CCCc2cc(Cl)ccc21)CO3 [Example 119, (3R,6R,7R,8E,22S)-6′-Chloro-7-methoxy-12,12-ethylene-15,15-dioxo-spiro[20-oxa-15-thia-1,11,14-triazatetracyclo[14.7.2.03,6.019,24]pentacosa[8,16(25),17,19(24)]tetraene-22,1′-tetralin]-13-one] | < 1 µM | 0.001 to 0.1 µM | – |
| [2H]C1([2H])/C=C/[C@H](OC(=O)N(C)C)[C@@H]2CC[C@H]2CN2C[C@@]3(CCCc4cc(Cl)ccc43)COc3ccc(cc32)S(=O)(=O)NC(=O)C(C)(C)O1 [Example 312, [(3R,6R,7S,8E,22S)-6′-Chloro-10,10-dideuterio-12,12-dimethyl-13,15,15-trioxo-spiro[11,20-dioxa-15-thia-1,14-diazatetracyclo[14.7.2.03,6.019,24]pentacosa-8,16,18,24-tetraene-22,1′-tetralin]-7-yl] N,N-dimethylcarbamate] | < 0.5 µM | < 0.001 µM | – |
